± gives the expanded uncertainty stated by the source.
Columns and labels:
[1] = 100 kPa, Liquid; for speed of sound: Frequency=3 MHz, Sing-around technique in a fixed-path interferometer; for mass density: Vibrating tube method
[2] = xn = mol fraction of the nth substance listed; details: 100 kPa, Liquid; for speed of sound: Frequency=3 MHz, Sing-around technique in a fixed-path interferometer; for mass density: Vibrating tube method

CCCCn1cc[n+](C)c1.F[B-](F)(F)F [1-butyl-3-methylimidazolium tetrafluoroborate]
[1], 293.15 K
Details | mass density [kg/m3] | speed of sound [m/s]
– | 1203.63 ± 1.1 | 1577.5 ± 1.6

CCCCn1cc[n+](C)c1.F[B-](F)(F)F [1-butyl-3-methylimidazolium tetrafluoroborate] + Nc1ccccc1
[2], x1 = 1
Details | mass density [kg/m3] | speed of sound [m/s]
293.15 K | 1203.63 ± 1.1 | 1577.5 ± 1.6
303.15 K | 1195.18 ± 1.1 | 1553.2 ± 1.6
313.15 K | 1188.04 ± 1.1 | 1529.7 ± 1.6
323.15 K | 1180.98 ± 1.1 | 1506.8 ± 1.6

Nc1ccccc1 [aniline]
[1]
Details | mass density [kg/m3] | speed of sound [m/s]
293.15 K | 1021.69 ± 1 | 1656.8 ± 1.3
303.15 K | 1013.04 ± 1 | 1618.3 ± 1.3
313.15 K | 1004.36 ± 1 | 1580 ± 1.3
323.15 K | 995.66 ± 1 | 1541.9 ± 1.3

Nc1ccccc1 [aniline] + CCCCn1cc[n+](C)c1.F[B-](F)(F)F
[2]
Details | mass density, 293.15 K [kg/m3] | mass density, 303.15 K [kg/m3] | mass density, 313.15 K [kg/m3] | mass density, 323.15 K [kg/m3] | speed of sound, 293.15 K [m/s] | speed of sound, 303.15 K [m/s] | speed of sound, 313.15 K [m/s] | speed of sound, 323.15 K [m/s]
x2 = 0 | 1021.69 ± 1 | 1013.04 ± 1 | 1004.36 ± 1 | 995.66 ± 1 | 1656.8 ± 1.3 | 1618.3 ± 1.3 | 1580 ± 1.3 | 1541.9 ± 1.3
x2 = 0.1001 | 1058.27 ± 1.5 | 1050.3 ± 1.4 | 1042.33 ± 1.4 | 1034.33 ± 1.4 | 1661 ± 1.4 | 1626.5 ± 1.4 | 1592 ± 1.4 | 1557.7 ± 1.3
x2 = 0.2028 | – | – | – | 1068.14 ± 1.5 | – | – | – | 1569.8 ± 1.4
x2 = 0.4991 | 1150.32 ± 1.5 | 1143.1 ± 1.5 | 1135.81 ± 1.5 | 1128.64 ± 1.5 | 1624.8 ± 1.4 | 1598.3 ± 1.4 | 1571.9 ± 1.4 | 1546.1 ± 1.4
x2 = 0.6032 | 1163.88 ± 1.6 | 1156.61 ± 1.6 | 1149.6 ± 1.5 | 1142.78 ± 1.5 | 1610.6 ± 1.5 | 1584.8 ± 1.5 | 1559.4 ± 1.5 | 1534.7 ± 1.5
x2 = 0.7021 | 1175.38 ± 1.6 | 1168.21 ± 1.6 | 1161.22 ± 1.6 | 1154.4 ± 1.6 | 1599.8 ± 1.5 | 1574.8 ± 1.5 | 1549.2 ± 1.5 | 1525.1 ± 1.5
x2 = 0.7907 | 1184.36 ± 1.6 | 1177.25 ± 1.6 | 1170.51 ± 1.6 | 1163.73 ± 1.6 | 1592.7 ± 1.5 | 1568.5 ± 1.5 | 1540.8 ± 1.5 | 1518.5 ± 1.5
x2 = 0.9026 | 1194.78 ± 1.6 | 1187.71 ± 1.6 | 1180.84 ± 1.6 | 1173.92 ± 1.6 | 1584.1 ± 1.6 | 1559.7 ± 1.6 | 1535.8 ± 1.6 | 1512.4 ± 1.5

From the NIST ThermoML archive (doi:10.1016/j.jct.2016.04.024)
